Measured values reported in ChEMBL document CHEMBL4483862, “Open-source discovery of chemical leads for next-generation chemoprotective antimalarials” (2018).

Tested on: Plasmodium berghei
Test: Luciferase/luciferin-expressing antifolate-resistant parasites were used to infect a culture of HepG2 cells that were pre-incubated with compounds. Infected hepatocytes emit light due to the luciferase reaction. Assay results are presented as the percent inhibition of light emission compared to control. […]
Assay type: functional
Conditions: sporozoite; for IC90: read-out: LUCIFERASE INFECTION ASSAY - IC90

| Compound | IC90 [µM] | other results |
| --- | --- | --- |
| Cc1n(-c2ccccc2)c2c([n+]1C)C(=O)c1ccccc1C2=O | 0.202 | IC50 (HEPG2TOX_HILL_SLOPE 0.753, HEPG2TOX_R_SQUARED 0.901, PBLUC_HILL_SLOPE 2.16, PBLUC_R_SQUARED 0.72, read-out: LUCIFERASE INFECTION ASSAY - IC50): 73.1 nM |
| O=C(COc1ccc(Oc2ccccc2)cc1)NCc1cn2ccccc2n1 | 1.77 | IC50 (HEPG2TOX_HILL_SLOPE 0.752, HEPG2TOX_R_SQUARED 0.901, PBLUC_HILL_SLOPE 2.64, PBLUC_R_SQUARED 0.419, read-out: LUCIFERASE INFECTION ASSAY - IC50): 772 nM |
| CCCN1C(=O)/C(=N\OCC(=O)c2cc(C)n(Cc3cccs3)c2C)c2ccccc21 | > 10 | IC50 (HEPG2TOX_HILL_SLOPE 0.794, HEPG2TOX_R_SQUARED 0.3, read-out: LUCIFERASE INFECTION ASSAY - IC50): > 10000 nM |
| Cc1nn(C)c(C)c1CC(=O)Nc1ccc(-n2cnc3ccccc32)cc1 | > 10 | IC50 (HEPG2TOX_HILL_SLOPE 0.764, HEPG2TOX_R_SQUARED 0.908, PBLUC_HILL_SLOPE 0.735, PBLUC_R_SQUARED 0.618, read-out: LUCIFERASE INFECTION ASSAY - IC50): 1310 nM |
| Cc1cccc(C)c1OC(=O)c1cn(Cc2ccccc2)nc1-c1cccnc1 | > 10 | IC50 (HEPG2TOX_HILL_SLOPE 0.808, HEPG2TOX_R_SQUARED 0.825, read-out: LUCIFERASE INFECTION ASSAY - IC50): > 10000 nM |
| O=C(C(Sc1nc2cc(S(=O)(=O)N3CCCCC3)ccc2o1)c1ccccc1)N1CCCCC1 (configuration not stated) | > 10 | IC50 (HEPG2TOX_HILL_SLOPE 0.777, HEPG2TOX_R_SQUARED 0.137, read-out: LUCIFERASE INFECTION ASSAY - IC50): > 10000 nM |
| O=C(Nc1ccccc1Oc1ccccc1Cl)c1cc2ccccc2c(=O)[nH]1 | 1.25 | IC50 (HEPG2TOX_HILL_SLOPE 0.764, HEPG2TOX_R_SQUARED 0.704, PBLUC_HILL_SLOPE 15.6, PBLUC_R_SQUARED 0.531, read-out: LUCIFERASE INFECTION ASSAY - IC50): 1090 nM |
| CC(=O)c1cccc(-c2cnc3ccc(Cc4ccc(F)cc4)nn23)c1 | 5.55 | IC50 (HEPG2TOX_HILL_SLOPE 0.753, HEPG2TOX_R_SQUARED 0.0911, PBLUC_HILL_SLOPE 6.85, PBLUC_R_SQUARED 0.304, read-out: LUCIFERASE INFECTION ASSAY - IC50): 4020 nM |
| CC(Nc1ncnc2sccc12)c1ccc(F)cc1 (configuration not stated) | 8.6 | IC50 (HEPG2TOX_HILL_SLOPE 0.743, HEPG2TOX_R_SQUARED 0.939, PBLUC_HILL_SLOPE 0.968, PBLUC_R_SQUARED 0.762, read-out: LUCIFERASE INFECTION ASSAY - IC50): 889 nM |
| COc1cncc(-c2cc3c(cn2)nc(NCCc2cc(OC)ccc2OC)n3C)c1 | 8.42 | IC50 (HEPG2TOX_HILL_SLOPE 0.77, HEPG2TOX_R_SQUARED 0.89, PBLUC_HILL_SLOPE 0.989, PBLUC_R_SQUARED 0.368, read-out: LUCIFERASE INFECTION ASSAY - IC50): 913 nM |
| Cc1nc2ccccc2nc1SC(C)C(=O)c1c[nH]c2ccccc12 (configuration not stated) | 1.98 | IC50 (HEPG2TOX_HILL_SLOPE 0.739, HEPG2TOX_R_SQUARED 0.941, PBLUC_HILL_SLOPE 2.85, PBLUC_R_SQUARED 0.882, read-out: LUCIFERASE INFECTION ASSAY - IC50): 916 nM |
| CCN(CC)S(=O)(=O)c1ccc2c(c1)CCN2Cc1nc2ccccc2c(=O)n1C | > 10 | IC50 (HEPG2TOX_HILL_SLOPE 0.751, HEPG2TOX_R_SQUARED 0.213, PBLUC_HILL_SLOPE 2.58, PBLUC_R_SQUARED 0.526, read-out: LUCIFERASE INFECTION ASSAY - IC50): 6020 nM |
| O=C(Nc1nc2ccccn2c1C(=O)NC1CCCC1)c1cccc(Cl)c1F | 1.24 | IC50 (HEPG2TOX_HILL_SLOPE 0.754, HEPG2TOX_R_SQUARED 0.896, PBLUC_HILL_SLOPE 3.54, PBLUC_R_SQUARED 0.569, read-out: LUCIFERASE INFECTION ASSAY - IC50): 669 nM |
| COc1cc(-c2ccc3ncc(-c4cccc(NC(C)=O)c4)n3n2)cc(OC)c1OC | 4.34 | IC50 (HEPG2TOX_HILL_SLOPE 0.736, HEPG2TOX_R_SQUARED 0.983, PBLUC_HILL_SLOPE 1.49, PBLUC_R_SQUARED 0.582, read-out: LUCIFERASE INFECTION ASSAY - IC50): 995 nM |
| Cc1nn(Cc2ccccc2)c2sc(C(=O)Nc3nc4ccccc4[nH]3)cc12 | 0.562 | IC50 (HEPG2TOX_HILL_SLOPE 0.737, HEPG2TOX_R_SQUARED 0.843, PBLUC_HILL_SLOPE 3.70, 1.65, PBLUC_R_SQUARED 0.424, 0.851, read-out: LUCIFERASE INFECTION ASSAY - IC50): 229 nM |
| COc1cc2c(cc1OC)CN(C(=O)c1ccc(OCC(F)(F)F)nc1)CC2 | 7.21 | IC50 (HEPG2TOX_HILL_SLOPE 0.758, HEPG2TOX_R_SQUARED 0.894, PBLUC_HILL_SLOPE 2.65, PBLUC_R_SQUARED 0.321, read-out: LUCIFERASE INFECTION ASSAY - IC50): 3140 nM |

| Compound | IC90 [µM] | other results |
| --- | --- | --- |
| CC(=O)c1cccc(-c2cnc3ccc(-c4cccc(Cl)c4)nn23)c1 | 8.63 | IC50 (HEPG2TOX_HILL_SLOPE 0.743, HEPG2TOX_R_SQUARED 0.718, PBLUC_HILL_SLOPE 1.63, PBLUC_R_SQUARED 0.591, read-out: LUCIFERASE INFECTION ASSAY - IC50): 2240 nM |
| COc1ccc(C(=O)NNC(=O)c2nn(-c3ccccc3)cc2O)c(OC)c1OC | 2.77 | IC50 (HEPG2TOX_HILL_SLOPE 0.737, HEPG2TOX_R_SQUARED 0.981, PBLUC_HILL_SLOPE 4.06, PBLUC_R_SQUARED 0.568, read-out: LUCIFERASE INFECTION ASSAY - IC50): 1610 nM |
| COc1cccc(C(O)c2nc(C(=O)Nc3ccc(OCc4ccccc4)cc3)cs2)c1 (configuration not stated) | 4.39 | IC50 (HEPG2TOX_HILL_SLOPE 0.759, HEPG2TOX_R_SQUARED 0.957, PBLUC_HILL_SLOPE 2.06, PBLUC_R_SQUARED 0.859, read-out: LUCIFERASE INFECTION ASSAY - IC50): 1510 nM |
| CCOc1cccc(-c2cn3c(-c4ccc(OC)cc4)cnc3cn2)c1 | 0.375 | IC50 (HEPG2TOX_HILL_SLOPE 0.801, HEPG2TOX_R_SQUARED 0.8, PBLUC_HILL_SLOPE 14.9, PBLUC_R_SQUARED 0.835, read-out: LUCIFERASE INFECTION ASSAY - IC50): 324 nM |
| Cc1ccc2ncnc(NCCc3ccccc3)c2c1 | 2.82 | IC50 (HEPG2TOX_HILL_SLOPE 0.814, HEPG2TOX_R_SQUARED 0.649, PBLUC_HILL_SLOPE 2.08, PBLUC_R_SQUARED 0.658, read-out: LUCIFERASE INFECTION ASSAY - IC50): 984 nM |
| CN(c1ccccc1)c1nccc2nc(-c3ccncc3)[nH]c12 | > 10 | IC50 (HEPG2TOX_HILL_SLOPE 0.766, HEPG2TOX_R_SQUARED 0.225, read-out: LUCIFERASE INFECTION ASSAY - IC50): > 10000 nM |
| CCOC(=O)C1=C(C)NC(C)=C(C(=O)OCC)C1C(=O)OCC(=O)Nc1c(Br)cc(C)cc1Br | > 10 | IC50 (HEPG2TOX_HILL_SLOPE 0.766, HEPG2TOX_R_SQUARED 0.947, PBLUC_HILL_SLOPE 2.01, PBLUC_R_SQUARED 0.575, read-out: LUCIFERASE INFECTION ASSAY - IC50): 4480 nM |
| CN(c1ccccc1)S(=O)(=O)c1ccc(C(=O)Nc2nn3cc(-c4ccccc4)nc3s2)cc1 | > 10 | IC50 (HEPG2TOX_HILL_SLOPE 0.762, HEPG2TOX_R_SQUARED 0.67, PBLUC_HILL_SLOPE 10.6, PBLUC_R_SQUARED 0.0386, read-out: LUCIFERASE INFECTION ASSAY - IC50): > 10000 nM |
| c1ccc2cc(OCCNc3ncnc4sccc34)ccc2c1 | 3.89 | IC50 (HEPG2TOX_HILL_SLOPE 0.735, HEPG2TOX_R_SQUARED 0.741, PBLUC_HILL_SLOPE 1.1, PBLUC_R_SQUARED 0.73, read-out: LUCIFERASE INFECTION ASSAY - IC50): 524 nM |
| Cn1nc(C(C)(C)C)cc1NC(=O)Cc1ccc(-c2ccccc2)cc1 | > 10 | IC50 (HEPG2TOX_HILL_SLOPE 0.763, HEPG2TOX_R_SQUARED 0.965, PBLUC_HILL_SLOPE 1.31, PBLUC_R_SQUARED 0.513, read-out: LUCIFERASE INFECTION ASSAY - IC50): 2950 nM |
| COc1cccc(CN2CCN3C(C(=O)Nc4cccc(OC(F)(F)F)c4)=COC3=NC2=O)c1 | > 10 | IC50 (HEPG2TOX_HILL_SLOPE 0.751, HEPG2TOX_R_SQUARED 0.867, PBLUC_HILL_SLOPE 2.96, PBLUC_R_SQUARED 0.388, read-out: LUCIFERASE INFECTION ASSAY - IC50): 6840 nM |
| O=C(COc1ccccc1C(=O)N/N=C/c1ccccc1O)Nc1ccc(SC(F)F)cc1 | 1.53 | IC50 (HEPG2TOX_HILL_SLOPE 0.754, HEPG2TOX_R_SQUARED 0.891, PBLUC_HILL_SLOPE 11.1, PBLUC_R_SQUARED 0.496, read-out: LUCIFERASE INFECTION ASSAY - IC50): 1260 nM |
| CC(=O)c1cccc(-c2cnc3ccc(-c4cccc(N)c4)nn23)c1 | 3.85 | IC50 (HEPG2TOX_HILL_SLOPE 0.765, HEPG2TOX_R_SQUARED 0.894, PBLUC_HILL_SLOPE 1.06, PBLUC_R_SQUARED 0.553, read-out: LUCIFERASE INFECTION ASSAY - IC50): 481 nM |
| CC(=O)Nc1cccc(-c2cnc3ccc(-c4cccs4)nn23)c1 | 3.37 | IC50 (HEPG2TOX_HILL_SLOPE 0.814, HEPG2TOX_R_SQUARED 0.982, PBLUC_HILL_SLOPE 1.1, PBLUC_R_SQUARED 0.75, read-out: LUCIFERASE INFECTION ASSAY - IC50): 461 nM |
| N#CC(C#N)=Cc1c(-c2ccc(Cl)cc2)[nH]c2ccccc12 | 1.39 | IC50 (HEPG2TOX_HILL_SLOPE 0.752, HEPG2TOX_R_SQUARED 0.846, PBLUC_HILL_SLOPE 1.54, PBLUC_R_SQUARED 0.775, read-out: LUCIFERASE INFECTION ASSAY - IC50): 332 nM |
